We go through one molecule from ChEMBL document CHEMBL5505992, “Novel membrane-targeting isoxanthohumol-amine conjugates for combating methicillin-resistant Staphylococcus aureus (MRSA) infections” (Eur J Med Chem, 2024).

The source made the active and inactive calls. The calls are words filed in the database; no cut-off is given here.

Data set [1] has as its system Staphylococcus aureus. Briefly: Bactericidal activity against methicillin-resistant Staphylococcus aureus incubated with 3 to 6 hrs compound treated plasma. The following applies: time 3-6 hrs. Type of data set: functional.
Data set [2] has as its system Cell membrane. Briefly: Disruption of cell membrane integrity in methicillin-resistant Staphylococcus aureus clinical isolate MRSA-16 assessed as increase in red fluorescence at 2 ug/ml incubated for 4 hrs by DAPI and PI staining based confocal microscopy analysis. Type of data set: cell membranes. The note with it: dose 2.0 µg/ml.
The subject of data set [3] is Staphylococcus aureus. The data set can be described thus: Antibacterial activity against methicillin-resistant Staphylococcus aureus clinical isolate MRSA-22 measured after 16 to 18 hrs by CLSI method. Type of data set: functional. The following applies: time 16-18 hrs.
Data set [4] deals with Cell membrane. The data set can be described thus: Induction of cell membrane permeability in methicillin-resistant Staphylococcus aureus clinical isolate MRSA-16 assessed as decrease in intact cells (Q3 region) at 16 ug/ml incubated for 2 hrs by SYTO 9 and PI staining based flow cytometry analysis (reference value: 99.07%). The class given is cell membranes. Set-up: scale not given: the % may be the effect or the level left. The note with it: dose 16.0 µg/ml.

The test system of data set [5] is Staphylococcus aureus. Briefly: Bactericidal activity against Staphylococcus aureus ATCC 29213 assessed as bacterial killing measured upto 8 hrs by time kill assay. Type of data set: functional, organism-based.
For data set [6], the system named is Cell membrane. The data set can be described thus: Induction of cell membrane permeability in methicillin-resistant Staphylococcus aureus clinical isolate MRSA-16 assessed as increase in damaged cells (Q2 region) at 16 ug/ml incubated for 2 hrs by SYTO 9 and PI staining based flow cytometry analysis (reference value: 0.91%). The following applies: dose 16.0 µg/ml. The class given is cell membranes. A general note: A flow cytometer gives signals particle by particle.

The test system of data set [7] is Staphylococcus aureus. Briefly: Antibacterial activity against methicillin-resistant Staphylococcus aureus clinical isolate MRSA-11 measured after 16 to 18 hrs by CLSI method. The note with it: time 16-18 hrs. Type of data set: functional.
A short description of data set [8]: Toxicity in Kunming mouse assessed as histopathological abnormalities in heart at 10 mg/kg, sc measured after 24 hrs by H and E staining based analysis. Type of data set: organism-based. The note with it: in vivo.
The subject of data set [9] is Staphylococcus aureus. The data set can be described thus: Antibacterial activity against methicillin-resistant Staphylococcus aureus in presence of phosphatidylethanolamine. The class given is functional, organism-based.
The test system of data set [10] is Staphylococcus aureus. Briefly: Antibacterial activity against methicillin-resistant Staphylococcus aureus infected in Kunming mouse skin infection model assessed as appearance of small number of infiltrated inflammatory cells in subcutaneous tissue at 8 mg/kg,sc measured after 24 hrs. The class given is functional, organism-based.
In data set [11] the test system is Cell membrane. Briefly: Induction of cell membrane permeability in methicillin-resistant Staphylococcus aureus clinical isolate MRSA-16 assessed as increase in damaged cells (Q2 region) at 32 ug/ml incubated for 2 hrs by SYTO 9 and PI staining based flow cytometry analysis (reference value: 0.91%). Type of data set: cell membranes. The following applies: dose 32.0 µg/ml.

Data set [12] has as its system Cell membrane. Briefly: Disruption of cell membrane in methicillin-resistant Staphylococcus aureus clinical isolate MRSA-16 assessed as increase in intracellular protein leakage incubated for 4 hrs by microspectrophotometer analysis. The class given is cell membranes.
In data set [13] the test system is Staphylococcus aureus. Briefly: Antibacterial activity against methicillin-resistant Staphylococcus aureus in presence of cardiolipin. Type of data set: functional, organism-based.
The nature of data set [14]: Toxicity in Kunming mouse assessed as adverse effect at 5 to 10 mg/kg, sc measured after 24 hrs. Type of data set: organism-based. The note with it: in vivo, dose 5-10 mg/kg.
In data set [15] the test system is Staphylococcus aureus. Briefly: Antibacterial activity against methicillin-resistant Staphylococcus aureus clinical isolate MRSA-14 measured after 16 to 18 hrs by CLSI method. The class given is functional. The following applies: time 16-18 hrs.
Data set [16] concerns Staphylococcus aureus. Briefly: Antibacterial activity against methicillin-resistant Staphylococcus aureus infected in Kunming mouse skin infection model assessed as decrease in bacterial load at 8 mg/kg,sc measured after 24 hrs. The class given is functional.
Data set [17] can be described thus: Toxicity in Kunming mouse assessed as histopathological abnormalities in liver at 10 mg/kg, sc measured after 24 hrs by H and E staining based analysis. The class given is organism-based. The note with it: in vivo.
Data set [18] can be described thus: Toxicity in Kunming mouse assessed as effect on heart at 10 mg/kg, sc measured after 24 hrs by H and E staining based analysis. Type of data set: organism-based. The following applies: in vivo.
Data set [19] is described as follows: Toxicity in Kunming mouse assessed as effect on lung at 10 mg/kg, sc measured after 24 hrs by H and E staining based analysis. The class given is organism-based. The note with it: in vivo.
A short description of data set [20]: Toxicity in Kunming mouse assessed as histopathological abnormalities in lung at 4 to 8 mg/kg, sc measured after 24 hrs by H and E staining based analysis. The class given is organism-based. The following applies: in vivo, dose 4-8 mg/kg.
For data set [21], the system named is Cell membrane. The data set can be described thus: Disruption of cell membrane in methicillin-resistant Staphylococcus aureus clinical isolate MRSA-16 assessed as increase in intracellular ROS production at upto 64 ug/ml measured after 40 mins by DCFH-DA dye based fluorescence assay. The class given is cell membranes. The following applies: dose <= 64.0 µg/ml.

Data set [22] can be described thus: Toxicity in Kunming mouse assessed as effect on spleen at 10 mg/kg, sc measured after 24 hrs by H and E staining based analysis. The note with it: in vivo. Type of data set: organism-based.
A short description of data set [23]: Toxicity in Kunming mouse assessed as effect on skin at 10 mg/kg, sc measured after 24 hrs by H and E staining based analysis. The class given is organism-based. The following applies: in vivo.

Consider `CCCC[N+](C)(CCCC)CCCCCOc1ccc(C2CC(=O)c3c(OC)cc(OCCCCC[N+](C)(CCCC)CCCC)c(CC=C(C)C)c3O2)cc1.[I-].[I-]` (stereo not drawn), for which, in the data set with Staphylococcus aureus [1], the MBC (usually the lowest tested concentration that kills the bacteria rather than only halting them) was determined as 4 µg/mL. Moreover, the result in the data set on Cell membrane [2], in the data set with Staphylococcus aureus [9], in the data set with Staphylococcus aureus [10], with Cell membrane [12], with Staphylococcus aureus [13] and with Cell membrane [21] was Active. Besides, the values for the MIC against Staphylococcus aureus [3], in the data set on Staphylococcus aureus [7] and in the data set on Staphylococcus aureus [15] were 1 µg/mL, 0.5 µg/mL and 0.25 µg/mL, respectively. For the same molecule, the Activity is 1.58% in the data set with Cell membrane [4]; “Dose-Dependent Effect” in the data set on Staphylococcus aureus [5]; 69.9% in the data set with Cell membrane [6]; “Non-Toxic” in data set [8]; 0.79% with Cell membrane [11]; “Non-Toxic” in [14]. In addition, the Activity in the data set with Staphylococcus aureus [16] is 5 log10CFU/g; in data set [17], “Non-Toxic”; in data set [18], “Non-Toxic”; in data set [19], “Non-Toxic”; in data set [20], “Non-Toxic”; in data set [22], “Non-Toxic”. Also, the Activity result in data set [23] is listed as “Non-Toxic”.
